This note sets out measurements from PMC9116242 (Journal of Enzyme Inhibition and Medicinal Chemistry, 2022).

Data set [1] relates to BV-2 cells. The experiment in a line: Cytotoxicity on BV-2 cells, MTT assay. It counts as cell-based. The following applies: 5 and 10 μM. For orientation: Tetrazolium dyes change colour on reduction, which living cells bring about.
The test system of data set [2] is NO production in LPS-induced BV-2 cells. Kind of data set: NO release in BV-2 cells and LPS-stimulated BV-2 cells, Griess reaction. It is filed as cell-based. The conditions noted are these: 5 and 10 μM.
The target of data set [3] is T1, huMAO-B (Homo sapiens, UniProt P27338).
T1 sequence (P27338 1-520): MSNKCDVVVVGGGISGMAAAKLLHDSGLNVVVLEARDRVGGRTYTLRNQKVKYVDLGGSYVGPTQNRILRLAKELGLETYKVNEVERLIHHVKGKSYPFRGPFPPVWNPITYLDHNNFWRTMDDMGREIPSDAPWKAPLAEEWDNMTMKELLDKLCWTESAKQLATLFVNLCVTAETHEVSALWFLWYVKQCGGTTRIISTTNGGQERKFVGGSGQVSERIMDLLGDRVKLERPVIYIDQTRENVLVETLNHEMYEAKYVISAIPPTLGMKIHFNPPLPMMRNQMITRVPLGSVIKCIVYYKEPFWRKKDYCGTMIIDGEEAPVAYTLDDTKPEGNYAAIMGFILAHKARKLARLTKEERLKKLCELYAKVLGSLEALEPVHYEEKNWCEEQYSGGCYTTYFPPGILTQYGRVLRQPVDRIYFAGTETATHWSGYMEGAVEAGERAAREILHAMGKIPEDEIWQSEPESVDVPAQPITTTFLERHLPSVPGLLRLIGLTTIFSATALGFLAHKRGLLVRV
Kind of data set: Kinetic study against huMAO-B, Lineweaver-Burk plots. It is filed as biochemical. The following applies: 5a at 0.15, 0.3 and 0.6 μM.

Data set [4] is described as follows: PAMPA-BBB permeation assay. The conditions noted are these: Table 3.
Data set [5] has as its system TNF-α production in LPS-induced BV-2 cells. Kind of data set: LPS-induced TNF-α production in BV-2 cells, ELISA. It is filed as cell-based. The following applies: for Level of TNF-α production: BV-2 cells, 1.0 μg/mL LPS; for inhibition at 5 µM: Mus musculus, BV-2, read-out: Inhibitory rate of TNF-α production.
Data set [6] concerns PC12 cells. The experiment in a line: Neuroprotective effect against Aβ1-42-induced PC12 cell injury, MTT assay. It is filed as cell-based. The following applies: 25 μM Aβ1-42 for 48 h, compound at 5 and 10 μM.
Data set [7] can be described thus: In vivo PET-CT imaging with [11C]5f in mice. The conditions noted are these: blocker 1.0 mg/kg 5 min before the radiotracer, compared with baseline.

Turning to `C#CCOc1ccc(/C=C/C(=O)N2CCC(Cc3ccccc3)CC2)cc1OC` [Compound 5a, (E)-1-(4-benzylpiperidin-1-yl)-3-(3-methoxy-4-(prop-2-yn-1-yloxy)phenyl)prop-2-en-1-one], the “Cytotoxicity on BV-2 cells (cell viability)” value (from here on “Cytotoxicity on BV-2 cells”) in data set [1] was “non-toxic”. Further, in data set [2], the “Effect on release of NO in BV-2 cells without LPS” value was “did not produce an effect on the release of NO”. In addition, the “Type of MAO-B inhibition” value in data set [3] is “competitive”. In data set [4], this compound showed a Pe of 14.7 ×10⁻⁶ cm/s. The “Level of TNF-α production” value is on record as 820 pg/mL in data set [5] (compound at 5 μM) and 520 pg/mL in data set [5] (compound at 10 μM). Also, in data set [5], the inhibition at 5 µM was determined as 51.7%.

`COc1cc(/C=C/C(=O)N2CCC(Cc3ccccc3)CC2)ccc1OC1CCCCC1` [Compound 5d, (E)-1-(4-benzylpiperidin-1-yl)-3-(4-(cyclohexyloxy)-3-methoxyphenyl)prop-2-en-1-one]: in data set [1], the “Cytotoxicity on BV-2 cells” value was “non-toxic”. Further, the “Effect on release of NO in BV-2 cells without LPS” value in data set [2] is listed as “did not produce an effect on the release of NO”. Besides, the “Cell viability, Aβ1-42-induced PC12 cell injury (in words)” value (“Cell viability … (in words)” for short) in data set [6] is “gradually increased in a dose-dependent manner”. This compound returned a Pe in data set [4] of 18.2 ×10⁻⁶ cm/s. Besides, the “Level of TNF-α production” value was 780 pg/mL in data set [5] (compound at 5 μM) and 460 pg/mL in data set [5] (compound at 10 μM). In data set [5], the inhibition at 5 µM is 54.1%.

As for `C#CCOc1ccc(/C=C/C(=O)N2CCc3ccccc3C2)cc1OC` [Compound 5e, (E)-1-(3,4-dihydroisoquinolin-2(1H)-yl)-3-(3-methoxy-4-(prop-2-yn-1-yloxy)phenyl)prop-2-en-1-one], the “Cytotoxicity on BV-2 cells” value in data set [1] was “non-toxic”. Also, the “Effect on release of NO in BV-2 cells without LPS” value in data set [2] is “did not produce an effect on the release of NO”. In addition, in data set [6], the “Cell viability … (in words)” value is “gradually increased in a dose-dependent manner”. Moreover, the Pe in data set [4] came out at 12.5 ×10⁻⁶ cm/s. Further, the “Level of TNF-α production” value in data set [5] (compound at 5 μM) is on record as 805 pg/mL; in data set [5] (compound at 10 μM), 550 pg/mL. The inhibition at 5 µM in data set [5] is 52.6%.

As to `COc1ccc(/C=C/C(=O)N2CCc3ccccc3C2)cc1OC` [Compound 5f, (E)-1-(3,4-dihydroisoquinolin-2(1H)-yl)-3-(3,4-dimethoxyphenyl)prop-2-en-1-one], the “Cytotoxicity on BV-2 cells” value in data set [1] was “non-toxic”. Further, the “Effect on release of NO in BV-2 cells without LPS” value in data set [2] is given as “did not produce an effect on the release of NO”. Also, the “Cell viability … (in words)” value in data set [6] is recorded as “gradually increased in a dose-dependent manner”. The compound further showed a Pe in data set [4] of 20.4 ×10⁻⁶ cm/s. The “Level of TNF-α production” value turned out to be 750 pg/mL in data set [5] (compound at 5 μM) and 455 pg/mL in data set [5] (compound at 10 μM). The inhibition at 5 µM in data set [5] is 55.9%. Also, in data set [7], the “Radio-uptake decrease of [11C]5f in the brain after pre-treatment (blocking)” value was ~35%.

Take `COc1cc(/C=C/C(=O)N2CCc3ccccc3C2)ccc1OC1CCCCC1` [Compound 5h, (E)-3-(4-(cyclohexyloxy)-3-methoxyphenyl)-1-(3,4-dihydroisoquinolin-2(1H)-yl)prop-2-en-1-one]: in data set [1], the “Cytotoxicity on BV-2 cells” value is “non-toxic”. Moreover, the “Effect on release of NO in BV-2 cells without LPS” value in data set [2] was “did not produce an effect on the release of NO”. The “Cell viability … (in words)” value in data set [6] is “gradually increased in a dose-dependent manner”. In data set [4], this compound showed a Pe of 16.7 ×10⁻⁶ cm/s. Besides, the results for the “Level of TNF-α production” value in data set [5] (compound at 5 μM) and in data set [5] (compound at 10 μM) were 740 pg/mL and 435 pg/mL, respectively. In data set [5], the inhibition at 5 µM is 56.5%.

Turning to `CCN(C)C(=O)Oc1cccc([C@H](C)N(C)C)c1` [Rivastigmine, reference compound], the “Radio-uptake decrease of [11C]5f in the brain after pre-treatment (blocking)” value in data set [7] is given as ~35%.
